From PubChem BioAssay (NCI)
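Where inhibition never reached the appropriate level, the endpoint shown equals the highest concentration tested. Otherwise, values were interpolated linearly from a five-concentration, 48-hour dose response in 96-well plates. GI50 = concentration required for 50% inhibition of growth. TGI denotes the concentration required for complete inhibition of growth.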

Columns and labels:
Test in all cases: NCI tumour cell line growth inhibition, 48 h
[1] = test system: SF-539 CNS
[2] = test system: HOP-62 NSCLC
[3] = test system: MOLT-4 leukemia
[4] = test system: NCI-H460 lung
[5] = test system: NCI-H23 lung
[6] = test system: HCT-15 colon
[7] = test system: RPMI-8226 leukemia
[8] = test system: SF-295 CNS
[9] = test system: OVCAR-4 ovarian
[10] = test system: SW-620 colon
[11] = test system: HOP-92 NSCLC
[12] = test system: COLO 205 colon
[13] = test system: NCI/ADR-RES ovarian
[14] = test system: OVCAR-8 ovarian
[15] = test system: SNB-19 CNS
[16] = test system: SR leukemia
[17] = test system: DU-145 prostate
[18] = test system: KM12 colon
[19] = test system: HS 578T breast
[20] = test system: A498 renal
[21] = test system: OVCAR-5 ovarian
[22] = test system: RXF 393 renal
[23] = test system: LOX IMVI melanoma
[24] = test system: HT29 colon
[25] = test system: OVCAR-3 ovarian
[26] = test system: A549 NSCLC
[27] = test system: T-47D breast
[28] = test system: UACC-257 melanoma
[29] = test system: MCF7 breast
[30] = test system: HCC-2998 colon
[31] = test system: M14 melanoma
[32] = test system: UACC-62 melanoma
[33] = test system: HL-60(TB) leukemia
[34] = test system: MALME-3M melanoma
[35] = test system: NCI-H226 lung
[36] = test system: UO-31 renal
[37] = test system: HCT-116 colon
[38] = test system: SK-OV-3 ovarian
[39] = test system: TK-10 renal
[40] = test system: SN12C renal
[41] = test system: NCI-H522 lung
[42] = test system: MDA-MB-468 breast
[43] = test system: SF-268 CNS
[44] = test system: BT-549 breast
[45] = test system: CCRF-CEM leukemia
[46] = test system: MDA-MB-435
[47] = test system: K-562 leukemia
[48] = test system: ACHN renal
[49] = test system: PC-3 prostate
[50] = test system: CAKI-1 renal
[51] = test system: SNB-75 CNS
[52] = test system: U251 CNS
[53] = test system: MDA-MB-231 breast
[54] = test system: SK-MEL-5 melanoma
[55] = test system: SK-MEL-28 melanoma
[56] = test system: IGROV1 ovarian
[57] = test system: 786-0 renal
[58] = test system: SK-MEL-2 melanoma
[59] = test system: EKVX NSCLC

For `COc1ccc(-c2nc3ccc(-c4nnc(SCc5ccccc5)o4)cc3[nH]2)cc1`, the GI50 [1] was 1.73 µM, the TGI [1] was 3.22 µM and the GI50 [2] was 3.17 µM. The TGI [2] was 9.51 µM, the GI50 [3] was 3.58 µM and the TGI [3] was greater than 100 µM. It also gave a GI50 [4] of 3.71 µM, a TGI [4] of 16.3 µM and a GI50 [5] of 4.21 µM. For the same compound, the TGI [5] was 19.8 µM, the GI50 [6] was 2.97 µM and the TGI [6] was 11.9 µM. It also gave a GI50 [7] of 2.96 µM, a TGI [7] of 17.4 µM and a GI50 [8] of 2.07 µM. The TGI [8] was 4.42 µM, the GI50 [9] was 2.12 µM and the TGI [9] was 5.08 µM. For the same compound, the GI50 [10] was 7.02 µM, the TGI [10] was 44.2 µM and the GI50 [11] was 6.46 µM. It also gave a TGI [11] of 24 µM, a GI50 [12] of 15.9 µM and a TGI [12] of 89.1 µM. It also gave a GI50 [13] of 2.51 µM, a TGI [13] of 7.69 µM and a GI50 [14] of 1.91 µM. The TGI [14] was 3.87 µM, the GI50 [15] was 7.81 µM and the TGI [15] was 21 µM. It also gave a GI50 [16] of 4.76 µM, a TGI [16] greater than 100 µM and a GI50 [17] of 6.89 µM. It also gave a TGI [17] of 23.4 µM, a GI50 [18] of 11.3 µM and a TGI [18] greater than 100 µM. The GI50 [19] was 2.77 µM, the TGI [19] was 7.29 µM and the GI50 [20] was 2.17 µM. For the same compound, the TGI [20] was 3.97 µM, the GI50 [21] was 15.6 µM and the TGI [21] was 38.5 µM. It also gave a GI50 [22] of 2.2 µM, a TGI [22] of 7.45 µM and a GI50 [23] of 1.91 µM. The TGI [23] was 3.73 µM, the GI50 [24] was 3.48 µM and the TGI [24] was 12 µM. For the same compound, the GI50 [25] was 2.82 µM, the TGI [25] was 6.37 µM and the GI50 [26] was 3.48 µM. For the same compound, the TGI [26] was 13.8 µM, the GI50 [27] was 2.02 µM and the TGI [27] was 4.84 µM. For the same compound, the GI50 [28] was 4.81 µM, the TGI [28] was 23.1 µM and the GI50 [29] was 2.86 µM. For the same compound, the TGI [29] was 12.8 µM, the GI50 [30] was 13.2 µM and the TGI [30] was 78.9 µM. For the same compound, the GI50 [31] was 4.25 µM, the TGI [31] was 26.5 µM and the GI50 [32] was 2.15 µM. The TGI [32] was 6.05 µM, the GI50 [33] was 2.79 µM and the TGI [33] was 15.5 µM. For the same compound, the GI50 [34] was 1.81 µM, the TGI [34] was 3.58 µM and the GI50 [35] was 1.76 µM. It also gave a TGI [35] of 3.84 µM, a GI50 [36] of 4.16 µM and a TGI [36] of 16.1 µM. The GI50 [37] was 3.66 µM, the TGI [37] was 15.7 µM and the GI50 [38] was 5.51 µM. It also gave a TGI [38] of 21.5 µM, a GI50 [39] of 3.13 µM and a TGI [39] of 8.83 µM. The GI50 [40] was 2.07 µM, the TGI [40] was 4.88 µM and the GI50 [41] was 2.27 µM. The TGI [41] was 7.08 µM, the GI50 [42] was 2.36 µM and the TGI [42] was 7.36 µM. It also gave a GI50 [43] of 3.53 µM, a TGI [43] of 13.7 µM and a GI50 [44] of 3.27 µM. For the same compound, the TGI [44] was 7.64 µM, the GI50 [45] was 2.82 µM and the TGI [45] was 19.6 µM. For the same compound, the GI50 [46] was 3.05 µM, the TGI [46] was 11.3 µM and the GI50 [47] was 2.9 µM. It also gave a TGI [47] of 24.8 µM, a GI50 [48] of 2.48 µM and a TGI [48] of 6 µM. It also gave a GI50 [49] of 3.1 µM, a TGI [49] of 11.2 µM and a GI50 [50] of 1.98 µM. It also gave a TGI [50] of 3.81 µM, a GI50 [51] of 1.66 µM and a TGI [51] of 3.27 µM. For the same compound, the GI50 [52] was 2.07 µM, the TGI [52] was 4.6 µM and the GI50 [53] was 2.55 µM. The TGI [53] was 6.3 µM, the GI50 [54] was 2.64 µM and the TGI [54] was 9.41 µM. It also gave a GI50 [55] of 3.14 µM, a TGI [55] of 12.2 µM and a GI50 [56] of 10.7 µM. For the same compound, the TGI [56] was 23.9 µM, the GI50 [57] was 1.97 µM and the TGI [57] was 4.26 µM. For the same compound, the GI50 [58] was 2.44 µM, the TGI [58] was 7.73 µM and the GI50 [59] was 3.98 µM. It also gave a TGI [59] of 16.6 µM.
